From patent publication US10781184B2, “Substituted benzazinones as antibacterial compounds” (GlaxoSmithKline Intellectual Property Development Limited, priority 2015, dated 2020) come the findings set out here.

Structures are written as SMILES. ≈ marks a conversion by molar mass, not a printed value. Bounds are passed on as bounds.

In one test the target is T1, Untagged E. coli LpxC (Escherichia coli, UniProt P0A725).
T1 construct: Untagged E. Coli LpxC 1-300 was expressed in E. Coli; made in house; host or cells: E. coli
T1 sequence (P0A725 1-300): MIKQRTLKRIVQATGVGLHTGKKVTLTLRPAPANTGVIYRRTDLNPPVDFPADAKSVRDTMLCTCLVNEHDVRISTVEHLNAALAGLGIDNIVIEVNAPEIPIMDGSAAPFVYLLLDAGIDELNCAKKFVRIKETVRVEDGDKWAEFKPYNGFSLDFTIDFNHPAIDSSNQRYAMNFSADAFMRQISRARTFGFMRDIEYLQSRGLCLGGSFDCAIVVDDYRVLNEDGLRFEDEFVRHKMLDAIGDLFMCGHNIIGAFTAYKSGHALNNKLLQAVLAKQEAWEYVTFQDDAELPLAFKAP
The test can be described thus: E. coli Enzyme Assay (LpxC deacetylase, RapidFire MS). Conditions: read-out: E. coli plC50 (converted). It counts as biochemical. The text has this:
Untagged E. Coli LpxC 1-300 was expressed in E. Coli and purified with NiNTA Agarose, Superdex 200 and Mono Q columns. UDP-3-O—(R-3-hydroxymyristoyl)-N-Acetylglucosamine Substrate was obtained through a custom synthesis from Alberta Innovates Technology Futures. Method Untagged E. coli LpxC is a deacetylase, which can remove an acetyl-group from UDP-3-O—(R-3-hydroxymyristoyl)-N-Acetylglucosamine (m/z 832.1-385) to result in a product (m/z 790.3→385) that is 42 Daltons less than the original acetylated substrate. Direct detection of the deacetylated product and acetylated substrate was accomplished through an Agilent RapidFire v. 3.4/Sciex 4000 Q-Trap RF-MS instrument. […] Following a 30 minute preincubation, 20 μL of 2× substrate [2 μM final concentration; 39.984 mL buffer+16 μL of UDP-3-O—(R-3-hydroxymyristoyl)-N-Acetylglucosamine (at 10 mM Stock)] was added and incubated for 25 minutes. The reaction was quenched by the addition of 10 μL of 1N HCl. The plate was loaded onto the Agilent RapidFire v. 3.4/Sciex 4000 Q-Trap RF-MS instrument for analysis [C4 SPE cartridge, 2 mM ammonium acetate in 100 v/v water as the aqueous eluent and 5 mM ammonium acetate in 25% v/v/25% v/v/50% v/v acetonitrile/acetone/water as the organic eluent]. For dose response experiments % conversion were determined from the substrate and product extracted ion chromatogram (XIC) areas and normalized to the assay high and low controls. Normalized data were fit by ActivityBase XE using the equation y=a+(b−a)/(1+(10^x/10^c)^d), where a is the minimum % activity, b is the maximum % activity, c is the pIC50, and d is the Hill slope. ^1Langsdorf, Erik F. et al. Screening for Antibacterial Inhibitors of the UDP-3-O—(R-3-Hydroxymyristoyl)-N-Acetylglucosamine Deacetylase (LpxC) Using a High-Throughput Mass Spectroscopy Assay. See, J. Biomol. Screen. 2010, 15, 52-61. Minimum Inhibitory Concentration Assay

A further test relates to P. aeruginosa PA01. As to the kind of experiment: Minimum Inhibitory Concentration Assay (broth microdilution, CLSI). In kind it is cell-based. Conditions: Pseudomonas aeruginosa; strain PA01, broth microdilution; read-out: P. aeruginosa PA01 MIC. The procedure, abridged: (§1)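 CLSI broth microdilution for aerobic bacteria; compounds serially diluted in the recommended broth over a final range of 0.125–128 mcg/mL, final DMSO below 1%. MIC read as the lowest concentration inhibiting visible growth.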
A general note: In broth dilution the organism is exposed to a series of concentrations in liquid medium.

Another test has as its system E. coli 7623. The test is described as above. In kind it is cell-based. Conditions: Escherichia coli; strain 7623, broth microdilution; read-out: E. coli 7623 MIC. The procedure, abridged:
as §1

In the next test the test system is K. pneumoniae 1161486. The test is described as above. It counts as cell-based. Conditions: Klebsiella pneumoniae; strain 1161486, broth microdilution; read-out: K. pneumoniae 1161486 MIC. The procedure, abridged:
as §1

The target of test [1] is T2, Untagged Pseudomonas LpxC (Pseudomonas aeruginosa, UniProt P47205).
T2 construct: made in house; host or cells: E. coli
T2 sequence (P47205 1-303): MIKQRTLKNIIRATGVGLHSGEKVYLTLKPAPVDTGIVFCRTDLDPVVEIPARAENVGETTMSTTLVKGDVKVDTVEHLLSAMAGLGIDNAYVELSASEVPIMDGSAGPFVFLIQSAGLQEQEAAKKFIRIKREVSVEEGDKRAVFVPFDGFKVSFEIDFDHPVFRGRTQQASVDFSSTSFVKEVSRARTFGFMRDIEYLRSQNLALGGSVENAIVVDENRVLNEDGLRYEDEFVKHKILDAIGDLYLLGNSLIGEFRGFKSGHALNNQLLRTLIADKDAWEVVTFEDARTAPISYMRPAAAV
As to the kind of experiment: P. aeruginosa Enzymatic Assay (LpxC deacetylase, RapidFire MS). It counts as biochemical. From the text:
P. aeruginosa Enzymatic Assay
Untagged Pseudomonas LpxC was expressed in E. coli from Psuedomonas aeruginosa PAO1 and purified from Q-Sepharose 1 and Q-Sepharose 2 columns. UDP-3-O—(R-3-hydroxymyristoyl)-N-Acetylglucosamine Substrate was obtained through a custom synthesis from Alberta Innovates Technology Futures.
Untagged Pseudomonas LpxC is a deacetylase, which can remove an acetyl-group from UDP-3-O—(R-3-hydroxymyristoyl)-N-Acetylglucosamine to result in a product that is 42 Daltons less than the original acetylated substrate. Direct detection of the deactylated product and acetylated substrate is accomplished through an Agilent RapidFire v. 3.4/Sciex 4000 Q-Trap RF-MS instrument.
Following a 30 minute incubation, 20 μL of 2× substrate [7.680 buffer+5 uL of UDP-3-O—(R-3-hydroxymyristoyl)-N-Acetylglucosamine (at 10 mM Stock)] was added and incubated for 25 minutes. 10 uL of 1N HCl was added to quench the reaction. The plate was loaded onto the Agilent RapidFire v. 3.4/Sciex 4000 Q-Trap RF-MS instrument for analysis, using a C4 SPE cartridge and 2 mM ammonium acetate in 100 v/v water as the aqueous eluent and 5 mM ammonium acetate in […] as the organic eluent. For dose response experiments, % conversion were determined from the substrate and product analytes and normalized data were fit by ABASE/XC50 using the equation y=a+(b−a)/(1+(10^x/10^c)^d), where a is the minimum % activity, b is the maximum % activity, c is the pIC50, and d is the Hill slope. ^1Langsdorf, Erik F. et al. Screening for Antibacterial Inhibitors of the UDP-3-O—(R-3-Hydroxymyristoyl)-N-Acetylglucosamine Deacetylase (LpxC) Using a High-Throughput Mass

The term MIC denotes the least concentration at which growth counts as inhibited. On to `C[C@@](CCn1ccc2cc(-c3ccc(CN4CCOCC4)cc3)ccc2c1=O)(C(=O)NO)S(C)(=O)=O` [Example 64, (2R)—N-hydroxy-2-methanesulfonyl-2-methyl-4-(6-{4-[(morpholin-4-yl)methyl]phenyl}-1-oxo-1,2-dihydroisoquinolin-2-yl)butanamide], for which the IC50 on Untagged E. coli LpxC is 1 nM. The values for the minimal inhibitory concentration (MIC) with P. aeruginosa PA01, with E. coli 7623 and in the test with K. pneumoniae 1161486 were 0.5 µg/mL (≈ 0.973 µM), under 0.03 µg/mL and 0.25 µg/mL (≈ 0.487 µM), respectively.
With `Cc1ccc(-c2cc(F)c3c(=O)n(CC[C@](C)(C(=O)NO)S(C)(=O)=O)cnc3c2)cc1` [Example 17, (2R)-4-[5-fluoro-7-(4-methylphenyl)-4-oxo-3,4-dihydroquinazolin-3-yl]-N-hydroxy-2-methanesulfonyl-2-methylbutanamide], the IC50 in test [1] is 1 nM. Further, the values for the MIC in the test on P. aeruginosa PA01, in the test with E. coli 7623 and in the test with K. pneumoniae 1161486 were 16 µg/mL (≈ 35.8 µM), 0.25 µg/mL (≈ 0.559 µM) and 1 µg/mL (≈ 2.23 µM), respectively.
Take `COC(C)(C)CNCc1ccc(-c2ccc3c(=O)n(CC[C@](C)(C(=O)NO)S(C)(=O)=O)ccc3c2)c(F)c1` [Example 68, (2R)-4-[6-(2-fluoro-4-{[(2-methoxy-2-methylpropyl)amino]methyl}phenyl)-1-oxo-1,2-dihydroisoquinolin-2-yl]-N-hydroxy-2-methanesulfonyl-2-methylbutanamide]: the IC50 on Untagged E. coli LpxC was 1 nM. Also, the minimum inhibitory concentration (MIC) in the test on P. aeruginosa PA01 is 2 µg/mL (≈ 3.65 µM); in the test with E. coli 7623, 0.125 µg/mL (≈ 0.228 µM); in the test with K. pneumoniae 1161486, 0.5 µg/mL (≈ 0.913 µM).
For the compound `C[C@@](CCN1CCc2cc(-c3ccccc3F)ccc2C1=O)(C(=O)NO)S(C)(=O)=O` [Example 91, (2R)-4-[6-(2-fluorophenyl)-1-oxo-1,2,3,4-tetrahydroisoquinolin-2-yl]-N-hydroxy-2-methanesulfonyl-2-methylbutanamide], in test [1], the IC50 was 1 nM. Besides, the values for the MIC with P. aeruginosa PA01, in the test on E. coli 7623 and in the test with K. pneumoniae 1161486 were 4 µg/mL (≈ 9.21 µM), 0.5 µg/mL (≈ 1.15 µM) and 0.5 µg/mL (≈ 1.15 µM), respectively.
In test [1], `C[C@@](CCn1ccc2cc(-c3ccc(CNC4CC4)cc3)ccc2c1=O)(C(=O)NO)S(C)(=O)=O` [Example 75, (2R)-4-(6-{4-[(cyclopropylamino)methyl]phenyl}-1-oxo-1,2-dihydroisoquinolin-2-yl)-N-hydroxy-2-methanesulfonyl-2-methylbutanamide] had an IC50 of 1 nM. The MIC in the test on P. aeruginosa PA01 amounted to 0.25 µg/mL (≈ 0.517 µM); with E. coli 7623 it was 0.06 µg/mL (≈ 0.124 µM); in the test on K. pneumoniae 1161486, 0.063 µg/mL (≈ 0.13 µM).
In the case of `CCOCCNCc1ccc(-c2ccc3c(=O)n(CC[C@](C)(C(=O)NO)S(C)(=O)=O)ccc3c2)c(F)c1` [Example 72, (2R)-4-[6-(4-{[(2-ethoxyethyl)amino]methyl}-2-fluorophenyl)-1-oxo-1,2-dihydroisoquinolin-2-yl]-N-hydroxy-2-methanesulfonyl-2-methylbutanamide], at Untagged E. coli LpxC, the IC50 was 1 nM. The MIC in the test on P. aeruginosa PA01 amounted to 1 µg/mL (≈ 1.87 µM); in the test with E. coli 7623, 0.125 µg/mL (≈ 0.234 µM); with K. pneumoniae 1161486 it was 0.25 µg/mL (≈ 0.468 µM).
The matching figures for `C[C@@](CCn1cnc2cc(-c3ccc(CCN4CCOCC4)cc3)ccc2c1=O)(C(=O)NO)S(C)(=O)=O` [Example 42, (2R)—N-hydroxy-2-methanesulfonyl-2-methyl-4-(7-{4-[2-(morpholin-4-yl)ethyl]phenyl}-4-oxo-3,4-dihydroquinazolin-3-yl)butanamide]: 1 nM, 2 µg/mL (≈ 3.78 µM), 0.25 µg/mL (≈ 0.473 µM) and 0.5 µg/mL (≈ 0.946 µM).
With `COc1ccc(-c2ccc3c(=O)n(CC[C@](C)(C(=O)NO)S(C)(=O)=O)cnc3c2)cc1` [Example 3, (R)—N-hydroxy-4-(7-(4-methoxyphenyl)-4-oxoquinazolin-3(4H)-yl)-2-methyl-2-(methylsulfonyl)butanamide], the IC50 on Untagged E. coli LpxC was 1 nM. The MIC in the test with P. aeruginosa PA01 was 2 µg/mL (≈ 4.49 µM); in the test with E. coli 7623, 0.06 µg/mL (≈ 0.135 µM); in the test on K. pneumoniae 1161486 it was 0.5 µg/mL (≈ 1.12 µM).
The matching figures for `CN(C)Cc1ccc(-c2ccc3c(=O)n(CC[C@](C)(C(=O)NO)S(C)(=O)=O)ccc3c2)c(F)c1F` [Example 69, (2R)-4-(6-{4-[(dimethylamino)methyl]-2,3-difluorophenyl}-1-oxo-1,2-dihydroisoquinolin-2-yl)-N-hydroxy-2-methanesulfonyl-2-methylbutanamide]: 1 nM, 1 µg/mL (≈ 1.97 µM), 0.125 µg/mL (≈ 0.246 µM) and 1 µg/mL (≈ 1.97 µM).
Take `C[C@@](CCn1cnc2cc(-c3ccc(CCN4CCOCC4)cc3F)ccc2c1=O)(C(=O)NO)S(C)(=O)=O` [Example 43, (2R)-4-(7-{2-fluoro-4-[2-(morpholin-4-yl)ethyl]phenyl}-4-oxo-3,4-dihydroquinazolin-3-yl)-N-hydroxy-2-methanesulfonyl-2-methylbutanamide]: the MIC was 2 µg/mL (≈ 3.66 µM) with P. aeruginosa PA01, 0.25 µg/mL (≈ 0.457 µM) in the test on E. coli 7623 and 0.5 µg/mL (≈ 0.915 µM) in the test on K. pneumoniae 1161486.
